Experimental data reported in ChEMBL document CHEMBL5143691, “Lead optimization of pyrido[2,3-d][1]benzazepin-6-one derivatives leading to the discovery of a potent, selective, and orally available human parathyroid hormone receptor 1 (hPTHR1) antagonist (DS69910557)” (Bioorg Med Chem, 2022).
Values after ≈ are worked out from the molar mass of the structure shown.

Assays:
[1] = Metabolic stability in rat liver microsomes assessed as compound remaining at 1 uM incubated for 30 mins in presence of NADPH by LC-MS/MS analysis
[2] = AUClast in Sprague-Dawley rat at 5 mg/kg, po by LC-MS/MS analysis; details: in vivo
[3] = Distribution coefficient, log D of compound in 1-octanol and aqueous phosphate buffered saline at pH 7.4 incubated for 30 mins by HPLC-MS analysis; details: 1-octanol/phosphate buffered saline
[4] = biological target: T1, Parathyroid hormone/parathyroid hormone-related peptide receptor (Homo sapiens, UniProt Q03431); assay: Antagonist activity against human PTHR1 expressed in CHO-K1 cells assessed as reduction in PTH induced cAMP level incubated for 30 mins in presence of IBMX by cAMP assay
T1 sequence (Q03431 whole entry): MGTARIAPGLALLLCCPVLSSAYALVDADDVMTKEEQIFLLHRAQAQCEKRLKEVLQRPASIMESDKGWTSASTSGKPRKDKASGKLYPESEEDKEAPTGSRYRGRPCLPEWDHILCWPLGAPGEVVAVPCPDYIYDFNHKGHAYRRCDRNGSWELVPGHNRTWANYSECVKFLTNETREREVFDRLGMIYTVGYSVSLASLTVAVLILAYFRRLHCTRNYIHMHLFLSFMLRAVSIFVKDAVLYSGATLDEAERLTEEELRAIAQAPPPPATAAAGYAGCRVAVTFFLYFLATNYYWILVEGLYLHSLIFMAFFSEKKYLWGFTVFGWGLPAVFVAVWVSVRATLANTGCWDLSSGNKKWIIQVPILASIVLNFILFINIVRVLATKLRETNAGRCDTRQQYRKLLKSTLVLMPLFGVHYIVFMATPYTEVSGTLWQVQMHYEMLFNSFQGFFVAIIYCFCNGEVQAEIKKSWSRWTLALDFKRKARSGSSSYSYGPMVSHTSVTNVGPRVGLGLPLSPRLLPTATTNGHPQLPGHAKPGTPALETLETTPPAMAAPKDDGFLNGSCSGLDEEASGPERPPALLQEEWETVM

in vivo = details: Sprague-Dawley, rat, po, 5 mg/kg
hERG (KCNH2) = hERG (KCNH2) (Homo sapiens, UniProt Q12809); assay: Inhibition of human ERG potassium channel expressed in CHO-K1 cells at 3 uM incubated for 5 mins by patch clamp assay; assay type: toxicity, cell-based; details: CHO-K1 cells expressing human ERG potassium channel
physchem [5] = details: JP1 fluid, pH 1.2
physchem [6] = details: JP2 fluid, pH 6.8
CYP1A2 = biological target: T2, CYP1A2 (Homo sapiens, UniProt P05177); assay: Inhibition of CYP1A2 (unknown origin) at 10 uM relative to control; assay type: ADME
T2 sequence (P05177 whole entry): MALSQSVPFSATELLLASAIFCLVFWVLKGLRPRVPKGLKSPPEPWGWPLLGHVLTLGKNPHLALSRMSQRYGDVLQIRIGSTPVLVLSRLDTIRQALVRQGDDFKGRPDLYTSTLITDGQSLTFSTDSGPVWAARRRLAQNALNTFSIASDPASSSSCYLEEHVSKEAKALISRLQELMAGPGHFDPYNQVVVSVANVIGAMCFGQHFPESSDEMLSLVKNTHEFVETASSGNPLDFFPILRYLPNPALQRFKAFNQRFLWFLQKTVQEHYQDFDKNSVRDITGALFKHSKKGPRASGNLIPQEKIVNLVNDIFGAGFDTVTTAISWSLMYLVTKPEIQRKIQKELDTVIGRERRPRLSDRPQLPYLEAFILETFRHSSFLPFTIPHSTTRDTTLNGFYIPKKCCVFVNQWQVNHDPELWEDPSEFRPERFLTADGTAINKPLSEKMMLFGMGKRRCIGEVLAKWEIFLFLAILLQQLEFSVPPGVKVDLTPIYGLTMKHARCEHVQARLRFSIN

CYP2C8 = biological target: T3, CYP2C8 (Homo sapiens, UniProt P10632); assay: Inhibition of CYP2C8 (unknown origin) at 10 uM relative to control; assay type: ADME
T3 sequence (P10632 whole entry): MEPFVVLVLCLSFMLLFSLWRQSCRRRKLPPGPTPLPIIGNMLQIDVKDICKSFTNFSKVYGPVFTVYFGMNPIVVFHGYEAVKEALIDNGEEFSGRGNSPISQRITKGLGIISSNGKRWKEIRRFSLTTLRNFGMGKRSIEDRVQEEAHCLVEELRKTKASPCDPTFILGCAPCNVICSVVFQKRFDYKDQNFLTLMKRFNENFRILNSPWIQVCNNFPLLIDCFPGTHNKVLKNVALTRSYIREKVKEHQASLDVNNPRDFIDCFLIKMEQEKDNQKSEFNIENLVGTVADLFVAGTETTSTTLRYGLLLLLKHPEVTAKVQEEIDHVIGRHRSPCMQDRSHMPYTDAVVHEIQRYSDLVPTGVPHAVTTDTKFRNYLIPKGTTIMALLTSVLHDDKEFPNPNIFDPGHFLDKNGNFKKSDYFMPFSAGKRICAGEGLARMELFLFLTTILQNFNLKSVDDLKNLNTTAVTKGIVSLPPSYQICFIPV

CYP2D6 = CYP2D6 (Homo sapiens, UniProt P10635); assay: Inhibition of CYP2D6 (unknown origin) at 10 uM relative to control; assay type: ADME
CYP2C19 = CYP2C19 (Homo sapiens, UniProt P33261); assay: Inhibition of CYP2C19 (unknown origin) at 10 uM relative to control; assay type: ADME
Chain of CYP2C19 (P33261 whole entry): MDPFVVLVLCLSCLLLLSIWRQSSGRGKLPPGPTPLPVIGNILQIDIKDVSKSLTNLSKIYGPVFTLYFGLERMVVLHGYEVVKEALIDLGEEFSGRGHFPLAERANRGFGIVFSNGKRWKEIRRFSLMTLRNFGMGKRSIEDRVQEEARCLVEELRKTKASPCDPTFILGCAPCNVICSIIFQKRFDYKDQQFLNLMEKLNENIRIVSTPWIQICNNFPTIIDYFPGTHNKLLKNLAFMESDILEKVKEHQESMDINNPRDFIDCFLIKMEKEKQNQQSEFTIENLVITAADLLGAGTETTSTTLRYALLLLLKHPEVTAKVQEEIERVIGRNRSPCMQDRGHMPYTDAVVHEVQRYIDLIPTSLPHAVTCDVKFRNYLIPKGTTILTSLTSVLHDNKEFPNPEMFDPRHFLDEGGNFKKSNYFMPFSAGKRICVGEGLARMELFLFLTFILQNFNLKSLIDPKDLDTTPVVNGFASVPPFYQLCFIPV

Chain of hERG (KCNH2) (Q12809 whole entry): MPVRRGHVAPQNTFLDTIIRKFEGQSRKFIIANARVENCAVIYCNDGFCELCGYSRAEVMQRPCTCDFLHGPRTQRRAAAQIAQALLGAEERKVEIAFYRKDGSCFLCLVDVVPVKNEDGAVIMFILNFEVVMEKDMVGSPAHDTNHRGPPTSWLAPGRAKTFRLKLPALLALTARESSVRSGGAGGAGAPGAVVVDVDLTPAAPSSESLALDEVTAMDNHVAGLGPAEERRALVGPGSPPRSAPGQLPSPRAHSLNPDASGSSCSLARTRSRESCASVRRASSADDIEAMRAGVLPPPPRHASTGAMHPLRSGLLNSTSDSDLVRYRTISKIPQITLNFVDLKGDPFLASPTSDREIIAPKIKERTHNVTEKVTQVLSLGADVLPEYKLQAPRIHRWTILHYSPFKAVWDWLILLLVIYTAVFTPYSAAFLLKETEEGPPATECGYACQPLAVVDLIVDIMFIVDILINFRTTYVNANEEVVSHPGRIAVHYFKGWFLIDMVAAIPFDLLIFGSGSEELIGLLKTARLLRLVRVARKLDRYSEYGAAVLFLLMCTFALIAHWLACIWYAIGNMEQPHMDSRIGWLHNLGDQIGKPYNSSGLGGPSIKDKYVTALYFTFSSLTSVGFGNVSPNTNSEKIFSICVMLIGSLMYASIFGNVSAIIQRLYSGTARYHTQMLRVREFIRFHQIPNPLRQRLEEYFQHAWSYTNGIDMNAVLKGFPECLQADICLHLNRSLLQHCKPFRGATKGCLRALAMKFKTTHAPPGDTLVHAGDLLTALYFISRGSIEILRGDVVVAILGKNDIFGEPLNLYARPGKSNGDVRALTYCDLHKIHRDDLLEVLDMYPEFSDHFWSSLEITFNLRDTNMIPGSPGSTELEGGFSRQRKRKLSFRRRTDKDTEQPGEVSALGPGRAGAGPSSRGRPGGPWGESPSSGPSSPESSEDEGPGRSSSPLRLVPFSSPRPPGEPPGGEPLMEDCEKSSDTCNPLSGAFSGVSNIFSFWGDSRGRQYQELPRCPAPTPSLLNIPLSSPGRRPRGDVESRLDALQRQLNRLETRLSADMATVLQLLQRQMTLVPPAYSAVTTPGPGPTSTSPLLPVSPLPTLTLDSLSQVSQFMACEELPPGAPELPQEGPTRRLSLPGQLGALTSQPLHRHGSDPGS
Chain of CYP2D6 (P10635 whole entry): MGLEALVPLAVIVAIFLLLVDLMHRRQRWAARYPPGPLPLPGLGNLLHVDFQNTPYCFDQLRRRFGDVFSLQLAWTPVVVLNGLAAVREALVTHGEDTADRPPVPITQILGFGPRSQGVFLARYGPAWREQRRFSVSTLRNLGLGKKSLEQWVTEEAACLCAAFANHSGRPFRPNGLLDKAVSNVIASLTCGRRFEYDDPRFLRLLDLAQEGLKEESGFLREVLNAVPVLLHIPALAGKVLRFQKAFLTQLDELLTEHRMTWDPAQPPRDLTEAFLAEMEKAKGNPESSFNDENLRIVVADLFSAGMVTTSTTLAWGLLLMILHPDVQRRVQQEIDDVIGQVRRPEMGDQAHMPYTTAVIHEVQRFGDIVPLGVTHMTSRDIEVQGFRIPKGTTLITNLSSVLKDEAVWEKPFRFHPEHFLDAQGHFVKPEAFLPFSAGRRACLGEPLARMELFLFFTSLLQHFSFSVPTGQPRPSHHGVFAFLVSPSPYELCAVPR

Row | SMILES | remaining at 0.5 h, 1 µM [1] [%] | IC50 [4] [nM] | inhibition at 5 min, 3 µM (hERG (KCNH2)) [%] | solubility at 4 h (physchem [5]) [µg/mL] | solubility at 4 h (physchem [6]) [µg/mL] | also measured
1 | CC1(C)C(=O)N(c2ccc(N3CC(F)(CNC45CCC(C(=O)O)(CC4)CC5)C3)cc2)c2cc(Cl)ccc2-c2cc(Cl)cnc21 | 97 | 90 | – | – | – | AUC(0-t) [2]: 11900 ng·h/mL; logD at 0.5 h [3]: 2.8; Cmax (in vivo): 900 ng/mL
2 | COC1(CN[C@H]2CC[C@H](C(=O)O)CC2)CN(c2ccc(N3C(=O)C(C)(C)c4ncc(Cl)cc4-c4ccc(Cl)cc43)cc2)C1 | – | – | 0 | – | – | –
3 | CC1(C)C(=O)N(c2ccc(N3CC(O)(CNC4CCOCC4)C3)cc2)c2cc(Cl)ccc2-c2cc(Cl)cnc21 | 82 | 840 | – | 940 (≈ 1660 µM) | 88 (≈ 155 µM) | –
4 | COC1(CN(C)C2CCOCC2)CN(c2ccc(N3C(=O)C(C)(C)c4ncc(Cl)cc4-c4ccc(Cl)cc43)cc2)C1 | 23 | 780 | – | 530 (≈ 890 µM) | 2.5 (≈ 4.2 µM) | –
5 | CC1(C)C(=O)N(c2ccc(N3CC(CNC4CCOCC4)(C(=O)O)C3)cc2)c2cc(Cl)ccc2-c2cc(Cl)cnc21 | 93 | 23000 | – | 100 (≈ 168 µM) | 97 (≈ 163 µM) | –
6 | CC1(C)C(=O)N(c2ccc(N3CC(CN[C@H]4CC[C@H](C(=O)O)CC4)C3)cc2)c2cc(Cl)ccc2-c2cc(Cl)cnc21 | – | – | 0 | – | – | –
7 | COC(=O)C1(CNC2CCOCC2)CN(c2ccc(N3C(=O)C(C)(C)c4ncc(Cl)cc4-c4ccc(Cl)cc43)cc2)C1 | 23 | 110 | – | 160 (≈ 262 µM) | 0.7 (≈ 1.15 µM) | –
8 | CC1(C)C(=O)N(c2ccc(N3CC(F)(CN[C@H]4CC[C@H](C(=O)O)CC4)C3)cc2)c2cc(Cl)ccc2-c2cc(Cl)cnc21 | – | – | 2 | – | – | inhibition at 10 µM (CYP1A2): < 50%; inhibition at 10 µM (CYP2C8): < 50%; inhibition at 10 µM (CYP2D6): < 50%; inhibition at 10 µM (CYP2C19): < 50%
